According to ChEMBL document CHEMBL1201862, “PubChem BioAssay data set” (2004):
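Where inhibition never reached the appropriate level, the endpoint shown equals the highest concentration tested. Otherwise, values were interpolated linearly from a five-concentration, 48-hour dose response in 96-well plates. Abbreviation: GI50, concentration required for 50% inhibition of growth.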 The source made the active and inactive calls. Rule as the data show it: active = GI50 up to about 1.1 µM and inactive = higher.

Assays:
Assay in all cases: DTP human tumour cell line panel, 48 h
[1] = test system: DLD-1
[2] = test system: HCT-15
[3] = test system: HOP-92
[4] = test system: HT-29
[5] = test system: K562
[6] = test system: KM12
[7] = test system: LXFL 529
[8] = test system: M14
[9] = test system: M19-MEL
[10] = test system: Malme-3M
[11] = test system: OVCAR-3
[12] = test system: OVCAR-4
[13] = test system: RPMI-8226
[14] = test system: SF-539
[15] = test system: SK-MEL-28
[16] = test system: SK-MEL-5
[17] = test system: SNB-19
[18] = test system: SW-620
[19] = test system: TK-10
[20] = test system: U-251
[21] = test system: UO-31
[22] = test system: XF498
[23] = test system: 786-0
[24] = test system: A498
[25] = test system: A549
[26] = test system: ACHN
[27] = test system: CAKI-1
[28] = test system: CCRF-CEM
[29] = test system: COLO 205
[30] = test system: DMS-114
[31] = test system: DMS-273
[32] = test system: EKVX
[33] = test system: HCC 2998
[34] = test system: HCT-116
[35] = test system: HL-60
[36] = test system: HOP-18
[37] = test system: HOP-62
[38] = test system: IGROV-1
[39] = test system: KM-20L2
[40] = test system: LOX IMVI
[41] = test system: NCI-H226
[42] = test system: NCI-H23
[43] = test system: NCI-H460
[44] = test system: NCI-H522
[45] = test system: OVCAR-5
[46] = test system: OVCAR-8
[47] = test system: RXF 393
[48] = test system: SF-268
[49] = test system: SF-295
[50] = test system: SK-MEL-2
[51] = test system: SK-OV-3
[52] = test system: SN12C
[53] = test system: SNB-75
[54] = test system: SNB-78
[55] = test system: SR
[56] = test system: UACC-257
[57] = test system: UACC-62
[58] = test system: MOLT-4

## COc1cc(C2c3cc4c(cc3[C@@H](NCCN(C)C)C3COC(=O)[C@H]23)OCO4)cc(OC)c1O (some centres not stated)
[1]
  GI50: 1.06 µM (active)
[2]
  GI50: 0.147 µM
[3]
  GI50: 0.0232 µM (active)
[4]
  GI50: 0.536 µM (active)
[5]
  GI50: 253 nM (active)
[6]
  GI50: 0.475 µM (active)
[7]
  GI50: 1.43 µM (inactive)
[8]
  GI50: 0.229 µM (active)
[9]
  GI50: 575 nM (active)
[10]
  GI50: 0.21 µM (active)
[11]
  GI50: 1.05 µM (active)
[12]
  GI50: 1.98 µM (inactive)
[13]
  GI50: 455 nM (active)
[14]
  GI50: 0.0375 µM (active)
[15]
  GI50: 0.284 µM (active)
[16]
  GI50: 86.9 nM (active)
[17]
  GI50: 338 nM (active)
[18]
  GI50: 153 nM (active)
[19]
  GI50: 0.853 µM (active)
[20]
  GI50: 35.9 nM (active)
[21]
  GI50: 149 nM (active)
[22]
  GI50: 120 nM (active)

## C=CCc1ccc(O)c(-c2cc(C3Oc4c(-c5cc(CC=C)ccc5O)cc(O)cc4[C@@H]3CO)ccc2O)c1 (some centres not stated)
[23]
  GI50: 33.5 µM (inactive)
[24]
  GI50: 14.8 µM (inactive)
[25]
  GI50: 56 µM (inactive)
[26]
  GI50: 36.2 µM (inactive)
[27]
  GI50: 47.3 µM (inactive)
[28]
  GI50: 20.7 µM (inactive)
[29]
  GI50: 35 µM (inactive)
[1]
  GI50: 18 µM (inactive)
[30]
  GI50: 14.9 µM (inactive)
[31]
  GI50: 20.4 µM (inactive)
[32]
  GI50: 64.4 µM (inactive)
[33]
  GI50: 22.1 µM (inactive)
[34]
  GI50: 23.7 µM (inactive)
[2]
  GI50: 15.8 µM
[35]
  GI50: 18.5 µM (inactive)
[36]
  GI50: 32.4 µM (inactive)
[37]
  GI50: 21.4 µM (inactive)
[3]
  GI50: 12.2 µM (inactive)
[4]
  GI50: 33.3 µM (inactive)
[38]
  GI50: 20.3 µM (inactive)
[5]
  GI50: 15600 nM (inactive)
[39]
  GI50: 26.7 µM (inactive)
[6]
  GI50: 27.4 µM (inactive)
[40]
  GI50: 16.9 µM (inactive)
[7]
  GI50: 19.8 µM (inactive)
[8]
  GI50: 37.5 µM (inactive)
[9]
  GI50: 33400 nM (inactive)
[10]
  GI50: 50.4 µM (inactive)
[41]
  GI50: 53.8 µM (inactive)
[42]
  GI50: 23.7 µM (inactive)
[43]
  GI50: 66.2 µM (inactive)
[44]
  GI50: 20.1 µM (inactive)
[11]
  GI50: 20.1 µM (inactive)
[12]
  GI50: 36.9 µM (inactive)
[45]
  GI50: 56.1 µM (inactive)
[46]
  GI50: 42.4 µM (inactive)
[13]
  GI50: 24900 nM (inactive)
[47]
  GI50: 21.2 µM (inactive)
[48]
  GI50: 30.3 µM (inactive)
[49]
  GI50: 48.3 µM (inactive)
[14]
  GI50: 24 µM (inactive)
[15]
  GI50: 26.7 µM (inactive)
[50]
  GI50: 18.6 µM (inactive)
[16]
  GI50: 16000 nM (inactive)
[51]
  GI50: 42.7 µM (inactive)
[52]
  GI50: 32.9 µM (inactive)
[17]
  GI50: 28500 nM (inactive)
[53]
  GI50: 45.9 µM (inactive)
[54]
  GI50: 39.9 µM (inactive)
[55]
  GI50: 14.4 µM (inactive)
[18]
  GI50: 15700 nM (inactive)
[19]
  GI50: 66.1 µM (inactive)
[20]
  GI50: 25200 nM (inactive)
[56]
  GI50: 73.5 µM (inactive)
[57]
  GI50: 30.3 µM (inactive)
[21]
  GI50: 40200 nM (inactive)

## COc1cc(CNc2ccc(C)cc2)cc(OC)c1OC
[23]
  GI50: 0.376 µM (active)
[25]
  GI50: 0.423 µM (active)
[28]
  GI50: 0.259 µM (active)
[29]
  GI50: 0.151 µM (active)
[1]
  GI50: 0.375 µM (active)
[30]
  GI50: 0.225 µM (active)
[31]
  GI50: 0.0925 µM (active)
[35]
  GI50: 0.0948 µM (active)
[37]
  GI50: 0.44 µM (active)
[38]
  GI50: 0.577 µM (active)
[5]
  GI50: 148 nM (active)
[39]
  GI50: 0.159 µM (active)
[40]
  GI50: 0.46 µM (active)
[7]
  GI50: 0.46 µM (active)
[9]
  GI50: 252 nM (active)
[58]
  GI50: 175 nM (active)
[42]
  GI50: 0.277 µM (active)
[43]
  GI50: 0.471 µM (active)
[11]
  GI50: 0.179 µM (active)
[45]
  GI50: 1.02 µM (active)
[46]
  GI50: 0.65 µM (active)
[13]
  GI50: 500 nM (active)
[47]
  GI50: 0.301 µM (active)
[48]
  GI50: 0.615 µM (active)
[50]
  GI50: 0.417 µM (active)
[16]
  GI50: 923 nM (active)
[51]
  GI50: 0.251 µM (active)
[17]
  GI50: 356 nM (active)
[53]
  GI50: 0.21 µM (active)
[18]
  GI50: 110 nM (active)
[20]
  GI50: 252 nM (active)
[56]
  GI50: 7.05 µM (inactive)
[21]
  GI50: 843 nM (active)
[22]
  GI50: 1290 nM (inactive)
